Results as given in PubChem BioAssay (NCI).
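Results reflect a 48-hour exposure of cells in 96-well plates to compound at five concentrations. At the GI50, growth is halved. TGI denotes the concentration required for complete inhibition of growth.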

Key:
Assay in all cases: NCI-60 cell line screen, 48 h
[1] = system: EKVX NSCLC
[2] = system: SK-MEL-28 melanoma
[3] = system: A549 NSCLC
[4] = system: TK-10 renal
[5] = system: HL-60(TB) leukemia
[6] = system: CCRF-CEM leukemia
[7] = system: HOP-92 NSCLC
[8] = system: PC-3 prostate
[9] = system: IGROV1 ovarian
[10] = system: NCI-H460 lung

| Structure (SMILES) | TGI [1] | TGI [2] | TGI [3] | TGI [4] | TGI [5] | TGI [6] | TGI [7] | TGI [8] | TGI [9] | TGI [10] | GI50 [1] | GI50 [3] | GI50 [5] | GI50 [6] | GI50 [9] | GI50 [10] | GI50 [2] | GI50 [4] | GI50 [7] | GI50 [8] |
| --- | --- | --- | --- | --- | --- | --- | --- | --- | --- | --- | --- | --- | --- | --- | --- | --- | --- | --- | --- | --- |
| CC(=O)O[C@@H]1[C@@H](O)C2=C3[C@]4(C)[C@@H]1C(C)(C)C(=O)C[C@@H]4[C@]3(O)[C@H](OC(C)=O)[C@@]1(C[C@@H]1C)C2=O | 40.7 µM | 37.1 µM | 68.4 µM | 29.7 µM | 49.1 µM | 34.1 µM | 36.6 µM | 48.9 µM | 30.9 µM | 40.1 µM |  |  |  |  |  |  |  |  |  |  |
| COc1ccc(C[C@@H]2NC[C@@H](O)[C@@H]2OC(C)=O)cc1 |  | 0.127 µM |  | 0.254 µM |  |  | 0.0448 µM | 0.255 µM | 8.14 µM |  | 1.55 µM | 5.54 µM | 1.72 µM | 4.35 µM | 0.367 µM | 3.43 µM |  |  |  |  |
| CCCCCCCCCc1cc[n+](CC(=O)c2ccc([N+](=O)[O-])cc2)cc1 | 2.55 µM | 2.39 µM | 3.13 µM | 2.88 µM | 3.64 µM | 5.01 µM | 1.03 µM | 1.88 µM | 3.29 µM | 3.08 µM | 0.914 µM | 1.64 µM | 1.7 µM | 1.95 µM | 1.66 µM | 1.53 µM | 1.11 µM | 1.47 µM | 0.234 µM | 0.552 µM |
| COc1ccc(-c2nc(C(=O)c3ccccc3)n(CC(=O)c3ccccc3)c2-c2ccc(OC)cc2)cc1 | > 100 µM | > 100 µM | > 100 µM | > 100 µM | > 100 µM | > 100 µM | > 100 µM | > 100 µM | > 100 µM | > 100 µM | > 100 µM | > 100 µM | > 100 µM | > 100 µM | > 100 µM | > 100 µM | > 100 µM | > 100 µM | 12.4 µM | > 100 µM |
| CS(=O)(=O)CCNCc1ccc(-c2ccc3ncnc(Nc4ccc(OCc5cccc(F)c5)c(C(F)(F)F)c4)c3c2)o1 | 9.94 µM | 7.2 µM | 9.27 µM | 9.82 µM | 13.4 µM | 13.9 µM | 6.34 µM | 10.8 µM | 13.5 µM | 8.51 µM | 3.12 µM | 4.23 µM | 5.65 µM | 4.8 µM | 4.56 µM | 4.1 µM | 3.71 µM | 4.65 µM | 0.847 µM | 4.86 µM |
| O=c1c(O)cccc2cc(O)c(O)c(O)c12 | > 100 µM | > 100 µM | > 100 µM | > 100 µM | 77.9 µM | > 100 µM | > 100 µM | > 100 µM | 27 µM | > 100 µM | 19.1 µM | > 100 µM | 21.9 µM | 7.55 µM | 5.06 µM | 6.86 µM | 32.3 µM | 55 µM | 19.8 µM | 54.1 µM |
| COC1=CC23CCCN2CCc2cc4c(cc2C3C1O)OCO4 (stereo unspecified) | > 100 µM | > 100 µM | > 100 µM | > 100 µM | 83.8 µM | > 100 µM | > 100 µM | > 100 µM | > 100 µM | > 100 µM |  |  |  |  |  |  |  |  |  |  |
